Measured values: patent US20250332112A1, “IONIZABLE CATIONIC LIPIDS FOR LIPID NANOPARTICLES” (GENEVANT SCIENCES GMBH, priority 2022, published 2025)

Key:
[1] = tested on: luciferase activity in the liver; experiment: Luciferase activity in liver after intravenous luciferase mRNA LNP; format: in vivo; conditions: 0.5 mg/kg IV, 6 h post-IV administration, BALB/c mice (n = 4)
[2] = Lipid clearance from liver over time after human OTC mRNA LNP (LC-MS); format: in vivo; conditions: IV 0.5 mg/kg human OTC mRNA LNP, male C57BL/6 mice (n = 4)
Experimental: (§1) LNP formulations encapsulating ornithine transcarbamylase mRNA were injected intravenously at the specified dose levels to male C57BL/6 mice (6-8 weeks old).
(§2) Liver tissues were treated with PBS and homogenized with a FastPrep machine, 3 cycles of 5 m/s×15 s. Homogenates from the PBS-treated control animals was pooled and used for standard curve preparation. Samples were extracted into a deep well plate with 250 μL of an internal suitability standard. Plates were centrifuged for 15 min at 4° C. and 2000 rpm. Analysis was performed using an Agilent 6520 QTOF coupled to an Agilent 1290 UHPLC, using reverse-phase LC separation. Quantitation of the ionizable lipid was by MS/MS against a calibration curve spiked into appropriately matched blank matrix. Calibration used a similar class of synthetic lipid as internal standard.
At various timepoints post-dose, lipid levels were assessed in the liver. Some novel ionizable lipids reported more rapid clearance rates compared to the benchmark (Table 19).

[3] = Parent ionizable lipid remaining in liver at 6 h after luciferase mRNA LNP (LC-MS); format: in vivo; conditions: 6 h after IV 0.5 mg/kg Luciferase mRNA LNP
[4] = tested on: human OTC expression in the liver; experiment: Dose response of human OTC mRNA LNP, OTC expression in liver (ELISA); format: in vivo; conditions: 24 h, male C57BL/6 mice (n = 4)
Experimental: as §1
Liver homogenates were prepared with PBS, Halt protease inhibitor cocktail and FastPrep homogenization, standardized to 2 mg/mL protein with a BCA Protein Assay, and then analyzed by ELISA. Briefly, samples were diluted with PBS and plated on Nunc Maxisorp plates. A standard curve using human […] protein was prepared from the naïve animal controls (vehicle). After 2 h incubation the plates were washed, and the primary antibody was added. After 1 h incubation, the secondary antibody was added and incubated for another hour. After washing, TMB Substrate was added for color development and the reaction was stopped with 2 N sulfuric acid. The plate was read at 450/570 OD.
At 24 h post-dose, the novel lipid formulations reported dose-dependent increases in human OTC expression in the liver (Table 15).

[5] = Particle characteristics of LNPs containing luciferase mRNA and novel ionizable lipids; format: physicochemical; conditions: Table 6; luciferase mRNA LNP 1.6:54.6:32.8:10.9
Method in brief: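 LNPs made from PEG-lipid, ionizable lipid, cholesterol and phospholipid in ethanol, T-mixed with luciferase mRNA in 100 mM acetate pH 5. Products were dialysed, concentrated, and dialysed into 5 mM Tris, 10% sucrose, pH 8, then 0.2 μm filtered. mRNA was measured by RiboGreen, and size and polydispersity by dynamic light scattering on a Zetasizer.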

[6] = Parent ionizable lipid remaining in liver at 24 h after EGFP mRNA LNP (LC-MS); format: in vivo; conditions: Table 31; 24 h after IV 0.5 mg/kg EGFP mRNA LNP, female BALB/c mice (n = 4)
Experimental: as §2
At 24 h post-dose, some treatment groups reported lower levels of novel ionizable lipid in mouse liver compared to the benchmark (Tables 28-31).

[7] = tested on: EGFP expression in the liver; experiment: EGFP expression in liver after intravenous EGFP mRNA LNP (ELISA); conditions: Table 27; 0.5 mg/kg IV, 24 h post-IV administration, BALB/c mice (n = 4)
[8] = Particle characteristics of LNPs containing EGFP mRNA and novel ionizable lipids; format: physicochemical; conditions: Table 23; EGFP mRNA LNP 1.6:54.6:32.8:10.9
Experimental: The lipid solution contains 4 components: a PEG-conjugated lipid, an ionizable lipid, cholesterol, and a phospholipid (e.g., DSPC). Lipid stocks were prepared using the lipid identities and molar ratios as described, to achieve a total concentration of ˜7 mg/mL in 100% ethanol. […] Equal volumes of the lipid and nucleic acid solutions were blended at a flow rate of 400 mL/min through a T-connector, and diluted with ˜4 volumes of PBS, pH 7.4. Formulations were placed in Slide-A-Lyzer dialysis units (MWCO 10,000) and dialyzed overnight against 10 mM Tris, 500 mM NaCl, pH 8 buffer. Following dialysis, the formulations were concentrated to ˜0.6 mg/mL using VivaSpin concentrator units (MWCO 100,000) and dialyzed overnight against 5 mM Tris, 10% sucrose, pH 8 buffer. Formulations were filtered through a 0.2 μm syringe filter (PES membrane). Nucleic acid concentration was determined by the RiboGreen assay. Particle size and polydispersity were determined using a Malvern Nano Series Zetasizer.
LNP formulations containing novel ionizable lipids all produced stable particles with high encapsulation efficiency (Tables 20-23).

[9] = Table 18, female BALB/c mice (n = 4)

Structure (SMILES)	Parent ionizable lipid remaining in liver, Average ([2]; 0.25 h post-dose)	Parent ionizable lipid remaining in liver, Average ([2]; 1 h post-dose)	Parent ionizable lipid remaining in liver, Average ([2]; 3 h post-dose)	Parent ionizable lipid remaining in liver, Average ([2]; 6 h post-dose)	Parent ionizable lipid remaining in liver, Average ([2]; 24 h post-dose)	Parent ionizable lipid remaining in liver, Average ([2]; 168 h post-dose)	Parent ionizable lipid remaining in liver, Average [3, 9]	Human OTC expression ([4]; 0.3 mg/kg IV)	Human OTC expression ([4]; 1 mg/kg IV)	Human OTC expression ([4]; 3 mg/kg IV)	Parent ionizable lipid remaining in liver, Average [6]	EGFP [7]	Final Product % EE [8]	Final Product PDI [8]	Final Product Z-avg [8]	further results
CCCCCCCCCCC(CCCCCCC(=O)OCCC(CCCCC)CCCCC)N(CCCCCCCC(=O)OCCC(CCCCC)CCCCC)C(=O)CCCN(C)C (centres unmarked) [Compound 67]	12.37 nmol/g liver	21.11 nmol/g liver	16.12 nmol/g liver	10.82 nmol/g liver	11.31 nmol/g liver	0.72 nmol/g liver	31.32 nmol/g liver									Luc Activity ([1]; Table 12): 1.31E+08 pg/g liver
CCCCCCCCCCON(C(=O)CCCN(C)C)C(CCCCCCCCCC)CCCCCCC(=O)OCCC(CCCCC)CCCCC (centres unmarked) [Compound 43, 3-pentyloctyl 8-[N-(decyloxy)-4-(dimethylamino)butanamido]octadecanoate]	22.97 nmol/g liver	38.91 nmol/g liver	28.99 nmol/g liver	24.19 nmol/g liver	13.50 nmol/g liver	0.19 nmol/g liver	23.83 nmol/g liver	1247 ng hOTC/mg protein in liver	5713 ng hOTC/mg protein in liver	12887 ng hOTC/mg protein in liver						Luc Activity ([1]; Table 13): 1.04E+08 pg/g liver; Parent ionizable lipid remaining in liver, Average ([3]; Table 17, female mice (n = 4)): 25.97 nmol/g liver; Final Product % EE [5]: 99%; Final Product PDI [5]: 0.05; Final Product Z-avg [5]: 73 nm
CCCCCCCCCCN(C(=O)CCCN(C)C)C(CCCCCCCCC)CCCCCCC(F)(F)C(=O)OCCC(CCCCCC)CCCCCC (centres unmarked) [Compound 16, 3-hexylnonyl 9-(N-decyl-4-(dimethylamino)butanamido)-2,2-difluorooctadecanoate]	11.11 nmol/g liver	15.47 nmol/g liver	10.91 nmol/g liver	4.71 nmol/g liver	1.33 nmol/g liver	0.04 nmol/g liver	17.06 nmol/g liver	1155 ng hOTC/mg protein in liver	4127 ng hOTC/mg protein in liver	10316 ng hOTC/mg protein in liver						Luc Activity ([1]; Table 13): 4.39E+07 pg/g liver; Parent ionizable lipid remaining in liver, Average ([3]; Table 17, female mice (n = 4)): 6.32 nmol/g liver; Final Product % EE [5]: 95%; Final Product PDI [5]: 0.10; Final Product Z-avg [5]: 76 nm
CCCCCCCCCCC(CCCCCCC(=O)OCC(CCCCCC)CCCCCCCC)N(CCCCCCC(F)(F)C(=O)OCC(CCCCCC)CCCCCCCC)C(=O)CCCN(C)C (centres unmarked) [Compound 33]	33.97 nmol/g liver	98.57 nmol/g liver	76.20 nmol/g liver	86.57 nmol/g liver	58.68 nmol/g liver	6.22 nmol/g liver		660 ng hOTC/mg protein in liver	2954 ng hOTC/mg protein in liver	11080 ng hOTC/mg protein in liver						
CCCCCCCCCCN(C(=O)CCCN(C)C)C(CCCCCCCCC)CCCCC(F)C(=O)OCC(CCCCCC)CCCCCCCC (centres unmarked) [Compound 120, 2-Hexyldecyl 7-(N-decyl-4-(dimethylamino)butanamido)-2-fluorohexadecanoate]											4.8 nmol/g liver	1.90E+07 pg/g liver	99%	0.15	69 nm	
CCCCCCCCCCN(C(=O)CCCN(C)C)C(CCCCCCCCC)CCCCC(F)C(=O)OC(CCCCCCC)CCCCCCC (centres unmarked) [Compound 122, Pentadecan-8-yl 7-(N-decyl-4-(dimethylamino)butanamido)-2-fluorohexadecanoate]											6.3 nmol/g liver	2.35E+07 pg/g liver	100%	0.13	70 nm	
CCCCCCCCCCN(C(=O)CCCN(C)C)C(CCCCCCCCC)CCCCC(F)C(=O)OC(CCCCCC)CCCCCC (centres unmarked) [Compound 121, Tridecan-7-yl 7-(N-decyl-4-(dimethylamino)butanamido)-2-fluorohexadecanoate]											2.1 nmol/g liver	3.81E+07 pg/g liver	99%	0.10	77 nm	
